Test results: PMC5390467, “Novel lead structures with both Plasmodium falciparum gametocytocidal and asexual blood stage activity identified from high throughput compound screening” (Malaria Journal, 2017)

Columns and labels:
[1] = test system: P. falciparum NF54 asexual parasites; assay: asexual parasite growth inhibition assay (SYBR Green); type: cell-based, Plasmodium falciparum; details: 72 h, mean ± SD, n = 3
Description: (§1) Asexual parasites of P. falciparum strain NF54 were cultured as described previously. Briefly, parasites were maintained in RPMI 1640 medium containing 10% positive human serum + erythrocytes (5% haematocrit), 2.5% sodium bicarbonate and 11 µg/mL gentamicin at 37 °C with 5% CO2, 5% O2 and 90% N2. Gametocyte cultures were set up at 0.1% parasitaemia and on days 9–10 treated with 50 mM N-acetylglucosamine (NAG) to block further asexual growth. Stage III–V gametocytes were isolated by Percoll density gradient centrifugation on day 12 and returned to culture for 24 h before being used in the assay. At the time of the assay over 73% of the gametocytes were stage IV or V (Additional file 1). HepG2 cells (ATCC, cat. no. 77400) were cultured in 175-cm^2 tissue culture flasks with 30 ml growth medium at 37 °C in a 5% CO2 and 5% O2 humidified atmosphere. Growth medium was made with Dulbecco’s Modified Eagle Medium with 10% fetal bovine serum (FBS). Growth medium was replaced every other day and cells were passaged at 75% confluence.
Drug activity on asexual stage parasites was tested using a SYBR Green assay as described previously. Briefly, 2.5 μL/well complete culture medium was dispensed into each well of 1536-well plates using the Multidrop Combi followed by 23 nL compound transferring using the NX-TR Pintool. Parasites were diluted to 0.5% parasitaemia in complete culture medium with 2% haematocrit and drugs diluted in DMSO (≤0.5%). The pre-diluted parasites were dispensed into a 1536-well plate (2.5 μL/well). After 72 h incubation under the standard culture conditions, 5 μL/well of lysis buffer containing SYBR Green I was added to the parasite culture and incubated for 30 min at room temperature. The fluorescence of each well was measured in a fluorescence detection mode (Ex = 490 nm, Em = 520 nm) using a ViewLux plate reader (PerkinElmer).

[2] = test system: HepG2 cells; assay: HepG2 cytotoxicity assay (AlamarBlue); type: cell-based, human; details: HepG2 cells, 72 h, AlamarBlue, up to 46 µM; for cytotoxicity at 46 µM: Homo sapiens, read-out: HepG2, IC50 (dash = less than 25% cytotoxicity)
Description: as §1
Drug activity on HepG2 was tested using an AlamarBlue assay as previously described. Briefly, 5 μL/well of HepG2 cells were dispensed with a seeding density of 1000 cells/well using the Multidrop Combi. 23 nL compound was transferred using the NX-TR Pintool. After 72 h incubation under the standard culture condition, 5 μL/well of 2X AlamarBlue dye was added to the cells, the plates were incubated for 2 h at 37 °C with 5% CO2 and then were read in a fluorescence detection mode (Ex = 525 nm, Em = 598 nm) on a ViewLux plate reader.

[3] = test system: 468 human kinases; assay: human kinase profiling (Kinome scan, DiscoverX), whole panel; type: binding
[4] = test system: P. falciparum NF54 gametocytes; assay: gametocyte viability assay (AlamarBlue); type: cell-based, Plasmodium falciparum; details: for IC50: P. falciparum NF54 stage III-V gametocytes, 72 h, AlamarBlue, mean ± SD, n = 3; for Asexual/Gametocyte: ratio of asexual IC50 to gametocyte IC50
Description: as §1
Compounds from the Sytravon library (a retired Pharma screening collection that contains a diversity of novel small molecules, with an emphasis on medicinal chemistry-tractable scaffolds) were obtained as powder samples and dissolved in DMSO as […] stock solutions. Compound screening experiments were performed as previously described. In the primary screen, two concentrations for each compound were tested. No technical and biological replicates were involved. In the follow-up confirmation studies, three biological replicates were tested for each compound in both parasite assays. The positive control was 46 µM of Torin 2 and negative control was DMSO. Briefly, 2.5 μL/well incomplete medium was dispensed into each well of 1536-well plates using the Multidrop Combi followed by 23 nL compound transferring using the NX-TR Pintool (WAKO Scientific Solutions, San Diego, CA). Then, 2.5 μL/well of gametocytes was dispensed with a seeding density of 20,000 cells/well using the Multidrop Combi. The assay plates were incubated for 72 h at 37 °C with 5% CO2. After addition of 5 μL/well of 2X AlamarBlue dye (Life Technologies, cat. no. DAL1100), the plates were incubated for 24 h at 37 °C with 5% CO2 and then were read in a fluorescence detection mode (Ex = 525 nm, Em = 598 nm) on a ViewLux plate reader (PerkinElmer).

Compound	IC50 ([1]; Plasmodium falciparum)	cytotoxicity at 46 µM [2]	number of human kinases interacting (Interactions Mapped, 468 Assays Tested) ([3]; 10 μM)	S-Score(35) ([3]; 10 µM, 468 assays)	binding to human kinases, in words ([3]; 10 µM, 468 human kinases)	IC50 ([4]; Plasmodium falciparum)	Asexual/Gametocyte [4]	IC50 [1]	HepG2, IC50 (dash = less than 25% cytotoxicity) [2]	IC50 [4]
CCOCc1cc(CN2CCN(c3ccccc3OC)CC2)c(O)c2ncccc12 [NCGC00114940]	1.16 ± 0.57 µM	< 25%	0	0	did not affect the activity of any	0.62 ± 0.04 µM	1.87			
O=C(NCc1ccc(Cl)cc1)C1CCCN(C(=O)c2cnn(-c3ccc(F)cc3)c2-n2cccc2)C1 (stereo not drawn) [NCGC00124960]							0.59	35.6 ± 1.77 µM	– (Indicates compounds with less than 25% cytotoxicity at up to 46 µM)	~60 µM
CCCCc1ccc(Nc2cc(C)nc(-n3nc(C)cc3C)n2)cc1 [NCGC00134132]	2.41 ± 0.32 µM	< 25%				1.29 ± 0.32 µM	1.87			
